Reference: patent publication US20250255932A1, “Granulocyte-Colony Stimulating Factor For The Promotion Of Scarless Tissue Regeneration” (The United States Government As Represented By The …, priority 2024, published 2025)

Legend:
[1] = system: ear hole injury in WT and CXCR2-KO mice; assay: Ear hole closure with topical imiquimod 5% cream; format: in vivo
Description: For ear wounding, a standard 2 mm mechanical punch (Roboz, Gaithersburg, MD) was used to create a hole in the center of each outer ear (pinna). Ear hole diameter was measured using a dissection microscope (Nikon) in the horizontal and vertical directions on a weekly basis. Ears were excluded if there were signs of wound infection, tearing of the ear, or abnormal geometric shape. These criteria were pre-established. For the antibiotic experiments, the same protocol as previously published was used (11).
To assess whether the CXCR2-mediated pathway utilized the same molecular mechanism, […] imiquimod 5% cream was rubbed on skin 5 days per week, beginning one week prior to ear hole injury in WT and CXCR2-KO mice. […] Imiquimod-treated CXCR2-KO mice achieved complete ear hole closure at a 90% frequency, which was >2-fold higher than CXCR2-KO mice (FIG. 9B, bottom graphs). Indeed, this 90% complete closure rate in imiquimod-treated CXCR2-KO mice is greater than the individual imiquimod or CXCR2 components combined.

[2] = system: Cxcl2; conditions: exogenous CFH; cited from earlier work
[3] = system: WT mice undergoing WIHN; assay: Wound induced hair neogenesis (WIHN), injection into the wound bed; format: in vivo; conditions: recombinant G-CSF vs PBS injected daily into wound beds of WT mice for the first 3 days
Description: To assess whether the circulating factor(s) was a cell or protein, plasma from CXCR2-KO and WT (control) mice was collected and injected daily into the wound beds of WT mice undergoing WIHN for the first 3 days after injury (FIG. 4B). The WIHN model was used because the wound bed was more accessible. […] Thus, a circulating protein in CXCR2-KO plasma improves tissue regeneration.
(§1) Next, recombinant G-CSF or PBS (control) was injected daily into the wound beds of WT mice undergoing WIHN for the first 3 days (FIG. 4D). […] This experiment was repeated in the stented back wound model. G-CSF-treated mice healed with >3-fold less scar formation compared to control mice (FIG. 4E). […] Taken together, exogenous G-CSF is sufficient to reduce scar formation and to promote complete tissue regeneration.
1-cm^2 full-thickness skin wounds were made as previously described (10). 5-weeks later, de novo hair follicles were identified by whole-mount alkaline phosphatase staining of dermis preparations as previously described.

[4] = system: stented back wounds on WT mice; assay: Stented back wound model; format: in vivo
Description: as §1
(§2) In our single-cell datasets, neutrophils and macrophages were the primary cell types in injured skin to express the G-CSF receptor (Csfr3) (FIG. 8D). […] Immunofluorescence confirmed that macrophages in WT and CXCR2-KO injured skin expressed the G-CSF receptor (FIG. 8E). […] Moreover, wounded tissue was collected at day 4 after injury in the stented back wound model from G-CSF-treated or PBS-treated WT mice. […] Taken together, G-CSF reduces scar formation and promotes tissue regeneration through polarization of infiltrating macrophages into an anti-inflammatory phenotype.
6 mm disposable biopsy punch (Acuderm) was used to make two circular full thickness wounds on the dorsal back skin of mice. Silicon wound splints (Grace Bio-Labs) were sutured with 4-0 Nylon to prevent skin contracture. Wounds were dressed with a sterile occlusive dressing and monitored daily. Borders were monitored by frequently application of permanent marker.
Standard histology and immunostaining protocols were performed, and investigators were blinded during histologic staining. 4% paraformaldehyde was used as the fixative. Briefly, immunohistochemical analysis was performed on 5-10 μm-thick sections of mouse skin. The following primary antibodies were used: rabbit monoclonal anti-Arginase-1 (93668, Cell Signaling Technology), rabbit polyclonal anti-CD80 (8679, ProSci), rabbit polyclonal anti-Histone H3 (ab5103, Abcam), goat polyclonal anti-MPO (AF3667, R&D Systems), Goat polyclonal anti-CD206 (AF2535, R&D Systems), rabbit monoclonal anti-F4/80 (70076, Cell Signaling Technology), rabbit polyclonal anti-COX2 (ab15191, Abcam), rabbit anti-iNOS (2982, Cell Signaling Technology), rabbit polyclonal anti-GCSFR (bs-2574R, Bioss) rabbit monoclonal anti-CD163 (68922, Cell Signaling Technology) and rat anti-Ly6G (551459, BD Pharmingen). […] After staining, images were directly analyzed using a Leica Microsystems DM6 B microscope equipped with a DFC9000 Camera or Keyence imaging system. […] Immunofluorescent images were analyzed using FIJI (40). The signal for the protein of interest was calculated as the percent area occupied by the cells positive for the protein of interest within the tissue section.
The paraffin sections were first de-waxed and hydrated. […] The acquired images were analyzed for fibrosis by quantifying the percent of collagen 1 (PSR) signal within the wounded tissue region. […]

[5] = system: epidermolysis bullosa patients; conditions: systemic G-CSF; cited from earlier work
[6] = system: bone-marrow derived monocytes; assay: In vitro polarization of bone-marrow derived monocytes (bulk RNA-seq gene expression); format: cell-based, mouse; conditions: monocytes treated with and without G-CSF, gene expression levels (FPKM)
Description: as §2
Monocytes were lysed immediately by adding TRIzol LS reagent. The samples were vortexed for 20 seconds, 0.2×volumes of chloroform was added, tubes were mixed by inverting and samples were centrifuged at 13,000 rpm at 4° C. for 15 min. The aqueous phase was then purified and the RNA-seq library were made using NEBNext® Low Input RNA Library Prep Kit (E6420S/L), following the manufacturer's instructions.
Fastq files were aligned to the mm10 reference genome using STAR_2.4.0 in basic two Pass mode using the “Encode” options as specified in the manual. Reads overlapping with annotated genes (Ensembl build mm10) were counted using the summarizeOverlaps function from the R package “GenomicAlignments” in strand-specific, paired-end mode. […]

CC(C)Cn1cnc2c(N)nc3ccccc3c21 [Imiquimod, imiquimod]
ear hole closure ([1]; imiquimod 5% cream on skin 5 days per week from one week prior to injury, vs control-treated mice): closed their ear holes even more efficiently than control-treated mice | frequency of complete ear hole closure ([1]; imiquimod-treated CXCR2-KO mice): 90% | complete ear hole closure frequency relative to CXCR2-KO mice ([1]; imiquimod-treated CXCR2-KO mice vs CXCR2-KO mice): > 2 fold

complement factor H [CFH]
fibroblast-specific expression of Cxcl2 [2]: reduces fibroblast-specific expression of Cxcl2 | macrophage recruitment [2]: no changes in macrophage recruitment | neutrophil recruitment [2]: reduced neutrophil recruitment | tissue regeneration [2]: partial tissue regeneration

B1: Granulocyte Colony-Stimulating Factor (protein, UniProt P09920 31-208, looked up)
Granulocyte …: VPLVTVSALPPSLPLPRSFLLKSLEQVRKIQASGSVLLEQLCATYKLCHPEELVLLGHSLGIPKASLSGCSSQALQQTQCLSQLHSGLCLYQGLLQALSGISPALAPTLDLLQLDVANFATTIWQQMENLGVAPTVQPTQSAMPAFTSAFQRRAGGVLAISYLQGFLETARLALHHLA
notes: recombinant G-CSF injected into wound beds of WT mice
increase in hair follicle regeneration compared to control mice [3]: 5 fold | less scar formation compared to control mice ([4]; G-CSF vs PBS, scar size at day 28 after injury): > 3 fold | fibrosis in healed skin (picrosirius red staining) ([4]; G-CSF-treated WT mice vs control skin): less fibrosis than control skin | anti-inflammatory macrophages (Cd163 and Mrc1) in wounded tissue ([4]; day 4 after injury, G-CSF-treated vs PBS-treated WT mice): more anti-inflammatory macrophages | average scar diameter ([4]; histological analysis, G-CSF-treated WT mice (PBS ~1.8 mm)): ~0.5 mm | blister counts and wound sizes [5]: reduced blister counts and wound sizes | polarization of monocytes [6]: directly polarized in vitro bone-marrow derived monocytes into an anti-inflammatory state
